Drawing on article PMC8253220, “Molecular design, synthesis and in vitro biological evaluation of thienopyrimidine–hydroxamic acids as chimeric kinase HDAC inhibitors: a challenging approach to combat cancer” (Journal of Enzyme Inhibition and Medicinal Chemistry, 2021), this text covers inhibition and melting point for 18 molecules.

The structures appear in SMILES notation.

Chain of VEGFR-2 (P35968 20-1356): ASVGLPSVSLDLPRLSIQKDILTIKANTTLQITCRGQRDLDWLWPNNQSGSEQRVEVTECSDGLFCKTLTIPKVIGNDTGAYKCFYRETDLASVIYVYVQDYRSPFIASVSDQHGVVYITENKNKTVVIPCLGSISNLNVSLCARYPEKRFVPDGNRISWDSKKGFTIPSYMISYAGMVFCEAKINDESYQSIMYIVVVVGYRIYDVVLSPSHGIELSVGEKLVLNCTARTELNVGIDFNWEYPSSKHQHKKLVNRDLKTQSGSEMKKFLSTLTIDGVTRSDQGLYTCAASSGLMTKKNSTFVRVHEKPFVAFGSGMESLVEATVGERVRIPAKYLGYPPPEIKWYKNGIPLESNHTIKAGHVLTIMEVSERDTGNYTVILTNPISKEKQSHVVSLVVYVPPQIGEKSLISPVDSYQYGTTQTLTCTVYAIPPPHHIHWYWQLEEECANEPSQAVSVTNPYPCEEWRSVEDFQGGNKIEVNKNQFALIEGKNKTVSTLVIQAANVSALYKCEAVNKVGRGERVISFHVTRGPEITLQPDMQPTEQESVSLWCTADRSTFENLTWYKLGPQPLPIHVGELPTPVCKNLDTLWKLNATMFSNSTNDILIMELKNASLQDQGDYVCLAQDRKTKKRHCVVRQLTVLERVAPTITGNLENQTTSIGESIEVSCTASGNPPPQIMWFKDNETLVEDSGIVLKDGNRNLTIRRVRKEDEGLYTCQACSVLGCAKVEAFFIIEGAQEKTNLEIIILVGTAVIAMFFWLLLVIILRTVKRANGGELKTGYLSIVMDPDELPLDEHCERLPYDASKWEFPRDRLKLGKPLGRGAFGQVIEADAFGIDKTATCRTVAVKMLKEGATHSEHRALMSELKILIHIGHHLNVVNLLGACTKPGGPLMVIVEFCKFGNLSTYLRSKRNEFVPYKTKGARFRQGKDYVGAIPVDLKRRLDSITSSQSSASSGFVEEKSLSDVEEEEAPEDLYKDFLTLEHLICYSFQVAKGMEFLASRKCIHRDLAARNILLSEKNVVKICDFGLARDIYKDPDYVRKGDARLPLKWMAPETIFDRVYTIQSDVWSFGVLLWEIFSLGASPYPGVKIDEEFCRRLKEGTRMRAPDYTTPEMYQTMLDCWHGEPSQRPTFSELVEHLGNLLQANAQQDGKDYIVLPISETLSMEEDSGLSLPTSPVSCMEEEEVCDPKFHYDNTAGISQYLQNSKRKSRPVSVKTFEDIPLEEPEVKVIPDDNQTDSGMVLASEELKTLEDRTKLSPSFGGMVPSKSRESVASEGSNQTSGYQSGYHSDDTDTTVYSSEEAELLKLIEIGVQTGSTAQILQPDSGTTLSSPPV

The first series addresses VEGFR-2 (Homo sapiens, UniProt P35968). The series can be described thus: In vitro VEGFR-2 tyrosine kinase inhibitory assay (Z'-LYTE, SelectScreen). The format is biochemical. The following applies: 10 µM single dose. As for the experimental part:
The target compounds were evaluated for their in vitro inhibitory activities against EGFR, VEGFR-2, and HDAC6. The EGFR and VEGFR-2 inhibitory assays were performed at Thermo Fischer Scientific, Madison, WI, USA (SelectScreenServices@thermofisher.com). The HDAC inhibitory assays were performed at BPS Bioscience, San Diego, CA, USA (www.bpsbioscience.com). Initially, all of the synthesised target compounds were evaluated for their percent inhibitory activity against EGFR, VEGFR-2, and HDACs at 10 µM single dose concentration, in which their mean percent inhibition is summarised in (Figure 5, Tables 1 and [2]). Representative compounds were evaluated for their percent inhibitory activity against EGFR and VEGFR-2 at 6 different concentrations (0.1 nM, 1 nM, 10 nM, 100 nM, 1 µM, 10 µM) to subsequently calculate their IC50 values (Table 3). Additionally, all of the synthesised target compounds were submitted to the National Cancer Institute “NCI” Bethesda, Maryland, USA (www.dtp.nci.nih.gov), to evaluate theirs in vitro antiproliferative activities against NCI 60- cancer cell line panel.
In vitro enzyme inhibition determination for the synthesised compounds was carried out in Thermo Fischer Scientific, Madison, WI, USA (SelectScreenServices@thermofisher.com). The EGFR and VEGFR-2 tyrosine kinase % inhibitory activity at a single-dose concentration of 10 µM was performed initially then representative compounds were evaluated at single-dose concentrations of (0.1 nM, 1 nM, 10 nM, 100 nM, 1 µM) using ZYLTE technology. A fluorescence-based, coupled-enzyme format is employed in the biochemical assay and depends on the sensitivity of proteolytic cleavage to non-phosphorylated and phosphorylated peptides. Then IC50 values for selected compounds were determined by GraphPad Prism at Misr international university.
In turn, `CCOC(=O)CCNC(=O)c1sc2ncnc(Nc3ccc(Cl)cc3)c2c1C` [Compound 17c] registered an inhibition at 10 µM of 87%.

Tested on in a further series: not given
Assay: not given
Settings: not given
For `CCOC(=O)c1sc2ncnc(Nc3ccc4[nH]cnc4c3)c2c1C` [Compound 14a, Ethyl 4-(1H-benzo[d]imidazol-5-ylamino)-5-methylthieno[2,3-d]pyrimidine-6-carboxylate.], the melting point lay in the range of 250 to 251 °C.
Same read-out and setting: to `CCOC(=O)CCCNC(=O)c1sc2ncnc(Nc3ccc(Cl)cc3)c2c1C` [Compound 18c, Ethyl 4–(4-(4-chlorophenylamino)-5-methylthieno[2,3-d]pyrimidine-6-carboxamido)butanoate] belongs 138 °C; to `CCOC(=O)c1sc2ncnc(Nc3ccc(NC(=O)Nc4cccc(C(F)(F)F)c4)cc3)c2c1C` [Compound 6c, Ethyl 4–(4-(3–(3-trifluromethyphenyl)ureido)phenylamino)-5-methylthieno[2,3-d]pyrimidine-6-carboxylate], 305 to 307 °C.
The molecule `CCOC(=O)CCNC(=O)c1sc2ncnc(Nc3ccc(NC(=O)Nc4cccc(OC)c4)cc3)c2c1C` [Compound 9b, Ethyl 3–(4-(4–(3-(3-methoxyphenyl)ureido)phenylamino)-5-methylthieno[2,3-d]pyrimidine-6-carboxamido)propanoate] had a melting point of 250 °C.
Same read-out and setting: to `CCOC(=O)c1sc2ncnc(Nc3ccccc3)c2c1C` [Compound 14b, Ethyl 5-methyl-4-(phenylamino)thieno[2,3-d]pyrimidine-6-carboxylate] belongs 170 to 172 °C.
The molecule `CCOC(=O)CCCNC(=O)c1sc2ncnc(Nc3ccc(F)c(Cl)c3)c2c1C` [Compound 18d, Ethyl 4–(4-(3-chloro-4-fluorophenylamino)-5-methylthieno[2,3-d]pyrimidine-6-carboxamido)butanoate] showed a melting point of 131 to 133 °C.
`CCOC(=O)CCCNC(=O)c1sc2ncnc(Nc3ccc(NC(=O)Nc4cccc(C(F)(F)F)c4)cc3)c2c1C` [Compound 10c, Ethyl 4–(5-methyl-4–(4-(3–(3(trifluoromethyl)phenyl)ureido)phenylamino)thieno[2,3-d]pyrimidine-6-carboxamido)butanoate] returned a melting point of 197 to 199 °C.
`CCOC(=O)CCNC(=O)c1sc2ncnc(Nc3ccc(Cl)cc3)c2c1C` [Compound 17c] gave a melting point of 202 °C.
For `CCOC(=O)c1sc2ncnc(Nc3ccc(NC(=S)Nc4ccccc4)cc3)c2c1C` [Compound 6d, Ethyl 5-methyl-4–(4-(3-phenylthioureido)phenylamino)thieno[2,3-d]pyrimidine-6-carboxylate], the melting point was in the range of 173 to 175 °C.
In the case of `CCOC(=O)c1sc2ncnc(Nc3ccc(F)c(Cl)c3)c2c1C` [Compound 14d, Ethyl 4–(3-chloro-4-fluorophenylamino)-5-methylthieno[2,3-d]pyrimidine-6-carboxylate], the melting point lay in the range of 154 to 156 °C.
Consider `CCOC(=O)CCNC(=O)c1sc2ncnc(Nc3ccc(NC(=O)Nc4cccc(C(F)(F)F)c4)cc3)c2c1C` [Compound 9c, Ethyl 3–(5-methyl-4–(4-(3(3(trifluoromethyl)phenyl)ureido)phenylamino)thieno[2,3-d]pyrimidine-6-carboxamido)propanoate], for which the melting point was 220 °C.
Regarding `CCOC(=O)CCCNC(=O)c1sc2ncnc(Nc3ccccc3)c2c1C` [Compound 18b, Ethyl 4–(5-methyl-4-(phenylamino)thieno[2,3-d]pyrimidine-6-carboxamido)butanoate], the melting point was in the range of 145 to 147 °C.
Regarding `CCOC(=O)c1sc2ncnc(Nc3ccc(NC(=O)Nc4cccc(OC)c4)cc3)c2c1C` [Compound 6b, Ethyl 4–(4-(3–(3-methoxyphenyl)ureido)phenylamino)-5-methylthieno[2,3-d]pyrimidine-6-carboxylate], the melting point is 220 to 222 °C.
For `CCOC(=O)CCCNC(=O)c1sc2ncnc(Nc3ccc(NC(=O)Nc4ccccc4)cc3)c2c1C` [Compound 10a, Ethyl 4–(5-methyl-4–(4-(3-phenylureido)phenylamino)thieno[2,3-d]pyrimidine-6-carboxamido)butanoate], the melting point was in the range of 219 to 221 °C.
For `CCOC(=O)c1sc2ncnc(Nc3ccc(NC(=O)Nc4ccccc4)cc3)c2c1C` [Compound 6a, Ethyl 5-methyl-4–(4-(3-phenylureido)phenylamino)thieno[2,3-d]pyrimidine-6-carboxylate], the melting point was 319 to 322 °C.
The molecule `CCOC(=O)c1sc2ncnc(Nc3ccc(Cl)cc3)c2c1C` [Compound 14c, Ethyl 4–(4-chlorophenylamino)-5-methylthieno[2,3-d]pyrimidine-6-carboxylate] yielded a melting point of 174 to 176 °C.
Molecule `CCOC(=O)CCNC(=O)c1sc2ncnc(Nc3ccc(F)c(Cl)c3)c2c1C` [Compound 17d, Ethyl 3–(4-(3-chloro-4-fluorophenylamino)-5-methylthieno[2,3-d]pyrimidine-6-carboxamido)propanoate] returned a melting point of 184 °C.
The same measure, in the same setting: to `CCOC(=O)CCNC(=O)c1sc2ncnc(Nc3ccccc3)c2c1C` [Compound 17b, Ethyl 3–(5-methyl-4-(phenylamino)thieno[2,3-d]pyrimidine-6-carboxamido)propanoate] belongs 206 °C.

Broadly, the inhibition is the relative decrease from the control value, in per cent. Lower therefore signals little suppression. As a reminder, the melting point is the temperature of the solid-liquid transition.
